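1) Cells in 96-well plates. 2) Compound, 48 h, 5 concentrations. 3) Linear interpolation between surrounding doses. 4) Unreached endpoint = highest concentration. The concentration for 50% growth inhibition is given as GI50. TGI marks complete inhibition of growth.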
How the values were obtained:
Test in all cases: NCI anticancer screen, dose series, 48 h
[1] = tested on: CCRF-CEM leukemia
[2] = tested on: IGROV1 ovarian
[3] = tested on: K-562 leukemia
[4] = tested on: OVCAR-3 ovarian
[5] = tested on: RPMI-8226 leukemia
[6] = tested on: SF-295 CNS
[7] = tested on: SK-MEL-2 melanoma
[8] = tested on: U251 CNS
[9] = tested on: UACC-62 melanoma
[10] = tested on: UO-31 renal

| SMILES | TGI [1] | TGI [2] | TGI [3] | TGI [4] | TGI [5] | TGI [6] | TGI [7] | TGI [8] | TGI [9] | TGI [10] | GI50 [1] | GI50 [2] | GI50 [3] | GI50 [4] | GI50 [5] | GI50 [6] | GI50 [7] | GI50 [8] | GI50 [9] | GI50 [10] |
| --- | --- | --- | --- | --- | --- | --- | --- | --- | --- | --- | --- | --- | --- | --- | --- | --- | --- | --- | --- | --- |
| O=c1c2ccccc2nc(-c2ccccc2)n1NC1OC(CO)C(O)C(O)C1O (stereo not drawn) | > 100 µM | > 100 µM | > 100 µM | > 100 µM | > 100 µM | > 100 µM | > 100 µM | > 100 µM | > 100 µM | > 100 µM | – | – | – | – | – | – | – | – | – | – |
| COc1cccc(-n2ncc3c(N/N=C/c4ccncc4)ncnc32)c1 | > 25 µM | > 25 µM | > 25 µM | > 25 µM | > 25 µM | > 25 µM | > 25 µM | > 25 µM | > 25 µM | > 25 µM | > 13.4 µM | 7.95 µM | 0.779 µM | 1.9 µM | > 25 µM | 1.35 µM | 4.33 µM | 1.1 µM | 4.28 µM | 2.45 µM |
| Cc1ccc(C)c(NC(=O)CC/C(=N\NC(=O)c2c(O)ccc3ccccc23)C(C)C(=O)c2ccc(O)cc2)c1 (stereo not drawn) | 71 µM | > 100 µM | > 100 µM | 89.2 µM | > 100 µM | > 100 µM | > 100 µM | > 100 µM | 34.3 µM | > 100 µM | – | – | – | – | – | – | – | – | – | – |
| COc1cc(C2C(Cl)C(=O)N2NC(=O)c2ccc(N)cc2)ccc1O (stereo not drawn) | 47.3 µM | > 100 µM | 76.2 µM | 39 µM | > 100 µM | > 100 µM | > 100 µM | 32 µM | > 100 µM | > 100 µM | – | – | – | – | – | – | – | – | – | – |
| COc1c(Cl)cc(NC(=S)C#N)cc1Cl | > 100 µM | > 82.6 µM | > 100 µM | > 62.8 µM | > 58.7 µM | > 79.9 µM | 86.2 µM | 43.6 µM | 30.8 µM | 56.1 µM | – | – | – | – | – | – | – | – | – | – |
| COc1cc(C(=O)NC2CCN(C)CC2)c(F)cc1Nc1ncc2c(n1)N(C1CCCC1)CC(F)(F)C(=O)N2C | 3.58 µM | 14.5 µM | 4 µM | 5.87 µM | 3.26 µM | – | 3.4 µM | 14.5 µM | 13.7 µM | 10.5 µM | < 0.01 µM | < 0.0217 µM | < 0.01 µM | < 0.0155 µM | < 0.022 µM | < 0.0176 µM | < 0.01 µM | < 0.0204 µM | < 0.0237 µM | – |
| Cc1cccc(C(C)C)c1NC(=O)CC1C(=O)Nc2ccccc2S1(=O)=O (stereo not drawn) | 30.2 µM | > 51 µM | 10.3 µM | 38.5 µM | 23 µM | 67.1 µM | > 62 µM | > 51.4 µM | > 51.1 µM | 84.4 µM | – | – | – | – | – | – | – | – | – | – |
| CC(C)(O)CC(=O)NCCn1ccc2ncnc(Nc3ccc(Oc4cccc(C(F)(F)F)c4)c(Cl)c3)c21 | > 10 µM | > 10 µM | > 10 µM | > 10 µM | > 10 µM | > 10 µM | > 10 µM | > 10 µM | > 10 µM | > 10 µM | 3.26 µM | 1.26 µM | 4.54 µM | 2.42 µM | 4.68 µM | 3.79 µM | 8.66 µM | 3.45 µM | 2.96 µM | 1.12 µM |
| COc1ccc(OC)c(NC(=O)CCC/C(CC(=O)c2ccc(O)c(OC)c2)=N\Nc2ccc([N+](=O)[O-])cc2)c1 | > 100 µM | > 100 µM | > 100 µM | > 100 µM | > 100 µM | > 100 µM | > 100 µM | > 100 µM | > 100 µM | > 100 µM | – | – | – | – | – | – | – | – | – | – |
| COc1ccc(/C=N/N=C(\N)NO)c(OC)c1 | > 100 µM | > 100 µM | > 100 µM | > 100 µM | > 100 µM | 70.7 µM | > 100 µM | > 100 µM | > 100 µM | > 100 µM | – | – | – | – | – | – | – | – | – | – |
| Clc1nc(Cl)c2ncn(C/C=C/COc3cccc(OC/C=C/Cn4cnc5c(Cl)nc(Cl)nc54)c3)c2n1 | > 100 µM | > 100 µM | > 100 µM | > 100 µM | > 100 µM | > 100 µM | > 100 µM | > 100 µM | > 100 µM | > 100 µM | 31 µM | > 100 µM | 29.7 µM | 95 µM | 25.3 µM | > 100 µM | > 100 µM | 65.6 µM | > 100 µM | > 100 µM |

Source: PubChem BioAssay (NCI)
